For this assay, the system named is E. coli W3110. Nature of the assay: H-89 derivatives rescreen, 50 µM. Particulars: Escherichia coli, H-89 derivative rescreen, highest 50 µM. It is filed as cell-based. How it is done: From glycerol stocks, E. coli W3110 was cultured on blood agar plates (PB5039A, Thermo Scientific) by overnight (18 ± 2 h) aerobic incubation at 37 °C. A single colony was transferred to tryptic soy broth (TSB, 02-200-500, Scharlab). The cultures were grown to exponential phase (OD600 of 0.5) at 37 °C. The bacterial suspensions were diluted 200-fold in cation-adjusted Mueller–Hinton broth (CAMHB) and 99 µl was added to a library of test compounds (1 µl 10 mM DMSO stock, per well in technical duplicates) in polypropylene 96-well microtitre plates to reach a volume of 100 µl and a final concentration of 100 µM for each test compound and a maximum of 1% DMSO. […] Screening hits were selected from the wells where no visible bacterial growth was observed, as compared with the inoculum controls containing 1% DMSO. The follow-up screen of H-89 derivatives was performed under similar conditions with a final concentration of 50 µM.
For `Cc1ccc(S(=O)(=O)NCCNC(=O)CCc2ccc(-c3cnc4[nH]ccc4c3)cc2)cc1` [Compound 15], the MIC was more than 50 µM.
Take `CNC(=O)c1ncccc1-c1ccc(CCC(=O)NCCNS(=O)(=O)c2cccc3cnccc23)cc1` [Compound 43]: the MIC was more than 50 µM.
The compound `O=S(=O)(NCCNC/C=C/c1ccc(-c2ccc3ccccc3c2)cc1)c1cccc2cnccc12` [Compound 3] had an MIC of more than 50 µM.
Compound `O=[N+]([O-])c1ccccc1S(=O)(=O)NCCNC/C=C/c1ccc(-c2cccnc2)cc1` [Compound 7] yielded an MIC of more than 50 µM.
For `CC(C)(C)c1cc(NC(=O)CCC#Cc2ccncc2)no1` [Compound 33], the minimal inhibitory concentration (MIC) is more than 50 µM.
For the compound `CC(C)(C)c1cc(NC(=O)CCC#Cc2cnc3[nH]ccc3c2)no1` [Compound 28], the minimal inhibitory concentration (MIC) is more than 50 µM.
`CC(C)(C)c1cc(NC(=O)CCC#Cc2ccc(N)nc2)no1` [Compound 29] gave a minimal inhibitory concentration (MIC) of more than 50 µM.
The value for `Nc1nccc2c(S(=O)(=O)NCCNC/C=C/c3ccc(-c4cccnc4)cc3)cccc12` [Compound 34] was more than 50 µM.
Turning to `O=S(=O)(NCCNC/C=C/c1ccc(-c2cccnc2)cc1)c1cccc2ccccc12` [Compound 6], the MIC is more than 50 µM.
The compound `CN(CCNCCCc1ccc(-c2cccnc2)cc1)S(=O)(=O)c1cccc2cnccc12` [Compound 10] registered an MIC of more than 50 µM.
The compound `Nc1ccc(-c2ccc(CCC(=O)NCCNS(=O)(=O)c3cccc4cnccc34)cc2)cn1` [Compound 41] displayed a minimum inhibitory concentration (MIC) of more than 50 µM.
As for `O=C(CCC#Cc1cnc2[nH]ccc2c1)NCCNS(=O)(=O)c1cccc2cnccc12` [Compound 21], the MIC was more than 50 µM.
The value for `O=C(/C=C/c1ccc(-c2cccnc2)cc1)NCCNS(=O)(=O)c1cccc2cnccc12` [Compound 38] was more than 50 µM; that for `Cc1ccc(S(=O)(=O)NCCNCCCc2ccc(-c3cnc4[nH]ccc4c3)cc2)cc1` [Compound 18] was more than 50 µM; that for `O=S(=O)(NCCNC/C=C/c1ccccc1-c1ccc2c(c1)OCO2)c1cccc2cnccc12` [Compound 46] was more than 50 µM.
Regarding `O=C(CCc1ccc(-c2cnc3[nH]ccc3c2)cc1)NCCNS(=O)(=O)c1ccc(Cl)cc1` [Compound 13], the minimal inhibitory concentration (MIC) was more than 50 µM.
In turn, `COc1ccc(S(=O)(=O)NCCNCCCc2ccc(-c3cnc4[nH]ccc4c3)cc2)cc1` [Compound 20] showed a minimum inhibitory concentration (MIC) of more than 50 µM.
For `O=S(=O)(NCCNC/C=C/c1ccc(-c2ccccc2)cc1)c1cccc2cnccc12` [Compound 2], the MIC was more than 50 µM.
To `O=C(CCc1ccc(-c2cnc3[nH]ccc3c2)cc1)NCCNS(=O)(=O)c1cccc2cnccc12` [Compound 44] belongs more than 50 µM.
In turn, `CN(C/C=C/c1ccc(-c2cccnc2)cc1)CCNS(=O)(=O)c1cccc2cnccc12` [Compound 9] gave an MIC of more than 50 µM.
In turn, `CC(C)(C)c1cc(NC(=O)CCC#Cc2cccnc2)no1` [Compound 27] came in with a minimum inhibitory concentration (MIC) of more than 50 µM.
As to `O=C(CCc1ccc(-c2cnc3[nH]ccc3c2)cc1)NCCNS(=O)(=O)c1ccccc1` [Compound 12], the minimal inhibitory concentration (MIC) is more than 50 µM.
`O=C(CCc1ccc(-c2cnc3[nH]ccc3c2)cc1)NCCNS(=O)(=O)c1cccc([N+](=O)[O-])c1` [Compound 23]: the MIC is more than 50 µM.
The compound `Clc1cnc(N2CCCC2)nc1Nc1n[nH]c2ccccc12` [Compound 26] showed a minimal inhibitory concentration (MIC) of more than 50 µM.
The value for `O=S(=O)(NCCNCCCc1ccc(-c2cnc3[nH]ccc3c2)cc1)c1ccc(Cl)cc1` [Compound 17] was more than 50 µM; that for `O=C(NCCNC/C=C/c1ccc(-c2cccnc2)cc1)c1cccc2cnccc12` [Compound 37] was more than 50 µM; that for `CN(CCNC/C=C/c1ccc(-c2cccnc2)cc1)S(=O)(=O)c1cccc2cnccc12` [Compound 8] was more than 50 µM.
The value for `O=C(CCc1ccc(-c2cnc3[nH]ccc3c2)cc1)NCCNS(=O)(=O)c1cccc(Cl)c1` [Compound 24] was more than 50 µM; that for `O=S(=O)(NCCNCCCCc1ccc(-c2cccnc2)cc1)c1cccc2cnccc12` [Compound 39] was more than 50 µM; that for `O=S(=O)(NCCNC/C=C/c1ccc(-c2cccnc2)cc1)c1cccc2cnccc12` [Compound 35] was more than 50 µM.
Turning to `O=S(=O)(NCCNCc1ccc2cc(-c3cccnc3)ccc2c1)c1cccc2cnccc12` [Compound 5], the minimal inhibitory concentration (MIC) is more than 50 µM.
With `O=C(CCc1ccc(-c2cnc3[nH]ccc3c2)cc1)NCCNS(=O)(=O)c1ccc(Cl)c(Cl)c1` [Compound 14], the minimal inhibitory concentration (MIC) was more than 50 µM.
The value for `Nc1ncccc1-c1ccc(CCC(=O)NCCNS(=O)(=O)c2cccc3cnccc23)cc1` [Compound 40] was more than 50 µM.
Consider `O=S(=O)(NCCNC/C=C/c1ccc(-c2ccccc2)cc1)c1cccc2ccccc12` [Compound 4], for which the minimal inhibitory concentration (MIC) is more than 50 µM.
The value for `CC(C)(C)c1cc(C(=O)NCC#Cc2cccnc2)no1` [Compound 32] was more than 50 µM; that for `CC(C)(C)c1cc(C(=O)NCC#Cc2ccc(N)nc2)no1` [Compound 30] was more than 50 µM; that for `O=C(CCc1ccc(-c2cnc3[nH]ccc3c2)cc1)NCCNS(=O)(=O)c1ccc(F)cc1` [Compound 25] was more than 50 µM.
On to `O=S(=O)(NCCNCCCc1ccc(-c2cnc3[nH]ccc3c2)cc1)c1ccccc1` [Compound 19], for which the MIC was more than 50 µM.
`CS(=O)(=O)NCCNC/C=C/c1ccc(-c2cccnc2)cc1` [Compound 36] had an MIC of more than 50 µM.
For the compound `O=S(=O)(NCCNCCCc1ccc(-c2cnc3[nH]ccc3c2)cc1)c1ccc(Cl)c(Cl)c1` [Compound 22], the MIC is more than 50 µM.
For the compound `O=S(=O)(NCCCCCCc1ccc(-c2cccnc2)cc1)c1cccc2cnccc12` [Compound 11], the MIC is more than 50 µM.
`CC(C)(C)c1cc(C(=O)NCC#Cc2cnc3[nH]ccc3c2)no1` [Compound 31] came in with an MIC of more than 50 µM.
Regarding `O=S(=O)(NCCNCCCc1ccc(-c2cnc3[nH]ccc3c2)cc1)c1cccc2cnccc12` [Compound 45], the minimum inhibitory concentration (MIC) was more than 50 µM.
`COc1ccc(S(=O)(=O)NCCNC(=O)CCc2ccc(-c3cnc4[nH]ccc4c3)cc2)cc1` [Compound 16] had an MIC of more than 50 µM.
Compound `CNC(=O)c1ccc(-c2ccc(CCC(=O)NCCNS(=O)(=O)c3cccc4cnccc34)cc2)cn1` [Compound 42] registered an MIC of more than 50 µM.

For orientation: MIC means the lowest concentration that inhibits growth of the organism. The low end stands for greater potency, the high end for weaker potency.

(Values after paper PMC11374673, “Discovery of isoquinoline sulfonamides as allosteric gyrase inhibitors with activity against fluoroquinolone-resistant bacteria” (Nature Chemistry, 2024).)
